# Patent publication US20210127673A1, “HERBICIDES” (SYNGENTA PARTICIPATIONS AG, priority 2016, published 2021)
# Key:
# Type in all cases: in vivo
# Conditions in all cases: 1000 g/ha, evaluated after 13 days
# [1] = test system: Triticum aestivium (TRZAW); experiment: Pre-emergence herbicidal activity, Triticum aestivium; parameters: key: 5=total damage to plant; 0=no damage to plant
# Procedure, shortened: (§1)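 Damage rated on a 0 (none) to 5 (total) scale 13 days after treatment. Spray was an aqueous solution from an acetone/water (50:50) formulation with 0.5% Tween 20, applied pre-emergence one day post-sowing; plants kept in a glasshouse at 24/16 °C, 14 h light, 65% humidity.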
# Avena fatua (AVEFA) [2] = experiment: Pre-emergence herbicidal activity, Avena fatua; parameters: key: 5=total damage to plant; 0=no damage to plant
# Procedure, shortened: as §1
# [3] = test system: Alopecurus myosuroides (ALOMY); experiment: Pre-emergence herbicidal activity, Alopecurus myosuroides; parameters: key: 5=total damage to plant; 0=no damage to plant
# Procedure, shortened: as §1
# [4] = test system: Echinochloa crus-galli (ECHCG); experiment: Pre-emergence herbicidal activity, Echinochloa crus-galli; parameters: key: 5=total damage to plant; 0=no damage to plant
# Procedure, shortened: as §1
# Lolium perenne (LOLPE) [5] = experiment: Pre-emergence herbicidal activity, Lolium perenne; parameters: key: 5=total damage to plant; 0=no damage to plant
# Procedure, shortened: as §1
# Setaria faberi (SETFA) [6] = experiment: Pre-emergence herbicidal activity, Setaria faberi; parameters: key: 5=total damage to plant; 0=no damage to plant
# Procedure, shortened: as §1
# [7] = test system: Triticum aestivium (TRZAW); experiment: Post-emergence herbicidal activity, Triticum aestivium; parameters: key: 5=total damage to plant; 0=no damage to plant
# Procedure, shortened: (§2)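 Pot-grown plants sprayed 8 days after sowing with compound in acetone/water (50:50) containing 0.5% Tween 20, in a glasshouse at 24/16 °C day/night, 14 h light, 65% humidity. Damage scored 13 days after spraying on a 0–5 scale (5 = total damage, 0 = none).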
# Avena fatua (AVEFA) [8] = experiment: Post-emergence herbicidal activity, Avena fatua
# Procedure, shortened: as §2
# [9] = test system: Alopecurus myosuroides (ALOMY); experiment: Post-emergence herbicidal activity, Alopecurus myosuroides; parameters: key: 5=total damage to plant; 0=no damage to plant
# Procedure, shortened: as §2
# [10] = test system: Echinochloa crus-galli (ECHCG); experiment: Post-emergence herbicidal activity, Echinochloa crus-galli; parameters: key: 5=total damage to plant; 0=no damage to plant
# Procedure, shortened: as §2
# Lolium perenne (LOLPE) [11] = experiment: Post-emergence herbicidal activity, Lolium perenne; parameters: key: 5=total damage to plant; 0=no damage to plant
# Procedure, shortened: as §2
# Setaria faberi (SETFA) [12] = experiment: Post-emergence herbicidal activity, Setaria faberi; parameters: key: 5=total damage to plant; 0=no damage to plant
# Procedure, shortened: as §2
SMILES,Control of TRAZW after pre-emergence application (score 0-5) [1],Control of AVEFA after pre-emergence application (score 0-5) (Avena fatua (AVEFA) [2]),Control of ALOMY after pre-emergence application (score 0-5) [3],Control of ECHCG after pre-emergence application (score 0-5) [4],Control of LOLPE after pre-emergence application (score 0-5) (Lolium perenne (LOLPE) [5]),Control of SETFA after pre-emergence application (score 0-5) (Setaria faberi (SETFA) [6]),Control of TRAZW after post-emergence application (score 0-5) [7],Control of AVEFA after post-emergence application (score 0-5) (Avena fatua (AVEFA) [8]),Control of ALOMY after post-emergence application (score 0-5) [9],Control of ECHCG after post-emergence application (score 0-5) [10],Control of LOLPE after post-emergence application (score 0-5) (Lolium perenne (LOLPE) [11]),Control of SETFA after post-emergence application (score 0-5) (Setaria faberi (SETFA) [12])
CON(C)C(=O)Nc1ccc(-c2cncc(F)c2)nc1C(F)(F)F [Compound B111],0,2,0,3,0,3,0,2,0,3,1,4
"CC(C)(C)OC(=O)Nc1ccc(-c2cncc(F)c2)nc1-c1ccccc1 [Compound B112, tert-butyl N-[6-(5-fluoro-3-pyridyl)-2-phenyl-3-pyridyl]carbamate]",0,0,0,3,0,4,0,1,0,1,0,3
CC(C)(C)OC(=O)N(C(=O)OC(C)(C)C)c1ccc(-c2cncc(F)c2)nc1C(F)(F)F [Compound B113],0,3,1,5,1,5,2,4,1,5,3,5
CC(C)(C)OC(=O)N(C(=O)OC(C)(C)C)c1ccc(-c2cncc(F)c2)nc1C#N [Compound B114],0,1,0,5,1,5,1,4,0,5,3,5
CC(C)OC(=O)Nc1ccc(-c2cncc(F)c2)nc1C#N [Compound B115],0,2,0,4,0,5,1,4,1,5,3,5
"O=C(Nc1ccc(-c2cncc(F)c2)nc1C(F)(F)F)N1CCS(=O)(=O)C1 [Compound B116, N-[6-(5-fluoro-3-pyridyl)-2-(trifluoromethyl)-3-pyridyl]-1,1-dioxo-1,3-thiazolidine-3-carboxamide]",0,2,0,4,1,5,1,3,1,4,3,5
"O=C(Nc1ccc(-c2cncc(F)c2)nc1C(F)(F)F)N1CC[S+]([O-])C1 (stereo not drawn) [Compound B117, N-[6-(5-fluoro-3-pyridyl)-2-(trifluoromethyl)-3-pyridyl]-1-oxo-1,3-thiazolidine-3-carboxamide]",0,3,0,4,1,5,3,4,1,5,4,5
CC(C)(C#N)OC(=O)Nc1ccc(-c2cncc(F)c2)nc1C(F)(F)F [Compound B118],0,0,0,2,0,4,0,3,0,3,1,4
C=CCOC(=O)Nc1ccc(-c2cncc(F)c2)nc1C(F)(F)F [Compound B119],0,2,0,3,0,5,0,4,0,3,3,5
